Data published in the CheMixHub viscosity set.
± gives the uncertainty stated by the source.

Assay: xn = mol fraction of the nth substance listed

C=C(C)C(=O)OCCCCCCC + C1CCCCC1
viscosity [mPa·s], 101 kPa
Conditions | x1 = 0.002 | x1 = 0.005 | x1 = 0.01 | x1 = 0.02
303 K | 0.8392 ± 0.0085 | 0.8401 ± 0.0085 | 0.8252 ± 0.0082 | 0.8456 ± 0.0087
313 K | 0.6991 ± 0.0056 | 0.7083 ± 0.0057 | 0.7012 ± 0.0055 | 0.7219 ± 0.006
323 K | 0.6114 ± 0.004 | 0.6127 ± 0.004 | 0.6159 ± 0.004 | 0.6244 ± 0.0043

CCCCCCCCCCCCCCCCCC(=O)OC + C1CCCCC1
viscosity [mPa·s], 101 kPa
Conditions | x1 = 0.05 | x1 = 0.1 | x1 = 0.15 | x1 = 0.2 | x1 = 0.25 | x1 = 0.3
298 K | 1.22 ± 0.03 | 1.46 ± 0.03 | 1.73 ± 0.04 | 2.03 ± 0.04 | 2.33 ± 0.05 | –
303 K | 1.14 ± 0.02 | 1.35 ± 0.03 | 1.58 ± 0.03 | 1.86 ± 0.04 | 2.12 ± 0.04 | 2.45 ± 0.05
308 K | 1.06 ± 0.02 | 1.25 ± 0.03 | 1.46 ± 0.03 | 1.71 ± 0.04 | 1.95 ± 0.04 | 2.2 ± 0.05
313 K | 0.99 ± 0.02 | 1.16 ± 0.02 | 1.34 ± 0.03 | 1.58 ± 0.03 | 1.78 ± 0.04 | 2.02 ± 0.04

CCCCCCCCCCCCO + C1CCCCC1
303.15 K, 101.33 kPa
Conditions | viscosity [mPa·s]
x1 = 0.0858 | 1.109 ± 0.014
x1 = 0.1621 | 1.502 ± 0.018
x1 = 0.305 | 2.569 ± 0.029
x1 = 0.405 | 3.522 ± 0.04
x1 = 0.506 | 4.63 ± 0.051
x1 = 0.5985 | 5.781 ± 0.062
x1 = 0.6982 | 7.191 ± 0.074
x1 = 0.7746 | 8.412 ± 0.084
x1 = 0.862 | 9.989 ± 0.098

CCCCCCCCN + C1CCCCC1
303.15 K, 101 kPa
Conditions | viscosity [mPa·s]
x2 = 0.0971 | 1.138 ± 0.023
x2 = 0.1959 | 1.096 ± 0.022
x2 = 0.2997 | 1.036 ± 0.021
x2 = 0.401 | 0.97 ± 0.02
x2 = 0.497 | 0.952 ± 0.019
x2 = 0.5993 | 0.913 ± 0.018
x2 = 0.6975 | 0.863 ± 0.017
x2 = 0.7993 | 0.82 ± 0.017
x2 = 0.896 | 0.81 ± 0.016

Cc1ccc(C)cc1 + C1CCCCC1
101 kPa
Conditions | viscosity [mPa·s]
303 K, x1 = 0.1025 | 0.7341 ± 0.0052
303 K, x1 = 0.2016 | 0.6783 ± 0.0049
303 K, x1 = 0.2982 | 0.6363 ± 0.0047
303 K, x1 = 0.402 | 0.6131 ± 0.0046
303 K, x1 = 0.4944 | 0.5946 ± 0.0046
303 K, x1 = 0.5992 | 0.5858 ± 0.0046
303 K, x1 = 0.7997 | 0.5735 ± 0.0047
303 K, x1 = 0.8951 | 0.5721 ± 0.0047
303.15 K, x2 = 0.1016 | 0.5673 ± 0.0041
303.15 K, x2 = 0.1997 | 0.572 ± 0.0041
303.15 K, x2 = 0.2851 | 0.5782 ± 0.0041
303.15 K, x2 = 0.3934 | 0.591 ± 0.0042
303.15 K, x2 = 0.4966 | 0.611 ± 0.0042
303.15 K, x2 = 0.5961 | 0.6362 ± 0.0044
303.15 K, x2 = 0.6976 | 0.6682 ± 0.0045
303.15 K, x2 = 0.7954 | 0.7086 ± 0.0047
303.15 K, x2 = 0.8986 | 0.763 ± 0.0049
313 K, x1 = 0.1025 | 0.6343 ± 0.0046
313 K, x1 = 0.2016 | 0.5965 ± 0.0044
313 K, x1 = 0.2982 | 0.5693 ± 0.0043
313 K, x1 = 0.402 | 0.5417 ± 0.0042
313 K, x1 = 0.4944 | 0.5288 ± 0.0041
313 K, x1 = 0.5992 | 0.5165 ± 0.0041
313 K, x1 = 0.6952 | 0.5142 ± 0.0042
313 K, x1 = 0.7997 | 0.5159 ± 0.0043
323 K, x1 = 0.1025 | 0.54 ± 0.004
323 K, x1 = 0.2016 | 0.5237 ± 0.0039
323 K, x1 = 0.2982 | 0.4976 ± 0.0038
323 K, x1 = 0.402 | 0.4831 ± 0.0038
323 K, x1 = 0.4944 | 0.4765 ± 0.0038
323 K, x1 = 0.6952 | 0.462 ± 0.0038
323 K, x1 = 0.7997 | 0.4612 ± 0.0039
323 K, x1 = 0.8951 | 0.4608 ± 0.0039

Cc1ccc(C)cc1 + C1CCOC1
303.15 K, 101.33 kPa
Conditions | viscosity [mPa·s]
x2 = 0.1057 | 0.564 ± 0.005
x2 = 0.2037 | 0.557 ± 0.005
x2 = 0.2809 | 0.552 ± 0.005
x2 = 0.4052 | 0.544 ± 0.005
x2 = 0.5256 | 0.53 ± 0.005
x2 = 0.6045 | 0.518 ± 0.005
x2 = 0.7062 | 0.501 ± 0.005
x2 = 0.8021 | 0.485 ± 0.005
x2 = 0.9001 | 0.462 ± 0.004

[Cl-].[Cl-].[Cl-].[Cl-].[Ge+4] + C1COCCO1
viscosity [mPa·s], 101 kPa
Conditions | x2 = 0.1519 | x2 = 0.3148 | x2 = 0.5071 | x2 = 0.6631 | x2 = 0.8814 | x2 = 0.9218
298.15 K | 0.626 ± 0.016 | 0.67 ± 0.017 | 0.745 ± 0.019 | 0.837 ± 0.021 | 0.978 ± 0.025 | 1.087 ± 0.027
313.15 K | 0.539 ± 0.014 | 0.57 ± 0.014 | 0.627 ± 0.016 | 0.687 ± 0.017 | 0.784 ± 0.02 | 0.856 ± 0.022

CCCCCCCCCCCCO + C=CC(=O)OC
viscosity [mPa·s], 101.3 kPa
Conditions | x2 = 0.1127 | x2 = 0.3078 | x2 = 0.3842 | x2 = 0.5147 | x2 = 0.6206 | x2 = 0.7884 | x2 = 0.8506 | x2 = 0.9093 | x2 = 0.9554 | x2 = 0.9794
298.15 K | 11.57 ± 0.42 | 5.722 ± 0.24 | 4.4 ± 0.19 | 2.703 ± 0.12 | 1.891 ± 0.088 | 0.992 ± 0.049 | 0.785 ± 0.04 | 0.629 ± 0.034 | 0.53 ± 0.029 | 0.484 ± 0.027
308.15 K | 8.309 ± 0.32 | 4.391 ± 0.19 | 3.385 ± 0.15 | 2.157 ± 0.099 | 1.515 ± 0.072 | 0.833 ± 0.042 | 0.668 ± 0.035 | 0.549 ± 0.03 | 0.473 ± 0.027 | 0.438 ± 0.025

CCCCCCCCCCCCO + C=CC(=O)OCC
viscosity [mPa·s], 101.3 kPa
Conditions | x2 = 0.0932 | x2 = 0.2669 | x2 = 0.3351 | x2 = 0.4687 | x2 = 0.5769 | x2 = 0.7542 | x2 = 0.8231 | x2 = 0.8907 | x2 = 0.9643 | x2 = 0.9743
298.15 K | 11.28 ± 0.82 | 6.404 ± 0.52 | 5.497 ± 0.47 | 3.183 ± 0.28 | 2.253 ± 0.21 | 1.192 ± 0.12 | 0.963 ± 0.096 | 0.74 ± 0.076 | 0.584 ± 0.063 | 0.565 ± 0.061
308.15 K | 10.08 ± 0.75 | 4.772 ± 0.42 | 4.182 ± 0.37 | 2.515 ± 0.23 | 1.748 ± 0.16 | 0.997 ± 0.099 | 0.792 ± 0.081 | 0.633 ± 0.067 | 0.512 ± 0.057 | 0.497 ± 0.055

CCCCCCCCCCCCO + C=CC(=O)OCCCC
viscosity [mPa·s], 101.3 kPa
Conditions | x2 = 0.075 | x2 = 0.2149 | x2 = 0.2782 | x2 = 0.3968 | x2 = 0.5042 | x2 = 0.7015 | x2 = 0.7849 | x2 = 0.8614 | x2 = 0.9327 | x2 = 0.9651
298.15 K | 12.42 ± 0.9 | 7.842 ± 0.61 | 6.982 ± 0.56 | 4.373 ± 0.38 | 3.244 ± 0.29 | 1.769 ± 0.17 | 1.376 ± 0.13 | 1.197 ± 0.12 | 0.983 ± 0.097 | 0.858 ± 0.087
308.15 K | 8.748 ± 0.67 | 5.789 ± 0.48 | 4.807 ± 0.42 | 3.38 ± 0.3 | 2.459 ± 0.22 | 1.409 ± 0.13 | 1.135 ± 0.11 | 1.004 ± 0.099 | 0.86 ± 0.087 | 0.732 ± 0.076

COC(=O)OCC(F)(F)F + CC1COC(=O)O1
298.15 K, 100 kPa
Conditions | viscosity [mPa·s]
x2 = 0.0999 | 1.13 ± 0.024
x2 = 0.2012 | 1.26 ± 0.027
x2 = 0.3 | 1.38 ± 0.03
x2 = 0.3991 | 1.51 ± 0.033
x2 = 0.5012 | 1.66 ± 0.036
x2 = 0.6016 | 1.82 ± 0.039
x2 = 0.699 | 2 ± 0.043
x2 = 0.7994 | 2.18 ± 0.047
x2 = 0.9002 | 2.36 ± 0.051

Cc1ccc(C)cc1 + CC#N
308.15 K, 101 kPa
Conditions | viscosity [mPa·s]
x1 = 0.1008 | 0.3403 ± 0.0081
x1 = 0.2001 | 0.3636 ± 0.0085
x1 = 0.2981 | 0.3915 ± 0.009
x1 = 0.3964 | 0.4147 ± 0.0094
x1 = 0.4985 | 0.4387 ± 0.0098
x1 = 0.5923 | 0.4603 ± 0.01
x1 = 0.6937 | 0.4799 ± 0.011
x1 = 0.7907 | 0.4989 ± 0.011
x1 = 0.9051 | 0.5199 ± 0.011

CC(=O)OCC[N+](C)(C)C.[Cl-] + CC(=O)CCC(=O)O
101 kPa, x2 = 0.75
Conditions | viscosity [mPa·s]
293.15 K | 164.5 ± 7.5
303.15 K | 85.88 ± 3.7
313.15 K | 46.75 ± 2
323.15 K | 31.58 ± 1.3

c1ccc(Nc2ccccc2)cc1 + CC(=O)O
323.15 K, 101.33 kPa
Conditions | viscosity [mPa·s]
x1 = 0.1031 | 1.083 ± 0.0088
x1 = 0.2023 | 1.242 ± 0.01
x1 = 0.4039 | 2.267 ± 0.02
x1 = 0.5079 | 2.799 ± 0.026
x1 = 0.6113 | 3.35 ± 0.033
x1 = 0.6724 | 3.714 ± 0.037
x1 = 0.7895 | 4.486 ± 0.049

Fc1ccccc1 + CC(=O)OCCC(C)C
viscosity [mPa·s], 101 kPa
Conditions | x2 = 0.0669 | x2 = 0.1372 | x2 = 0.2148 | x2 = 0.2975 | x2 = 0.3897 | x2 = 0.4843 | x2 = 0.5939 | x2 = 0.713 | x2 = 0.8486
303.15 K | 0.541 ± 0.011 | 0.565 ± 0.011 | 0.591 ± 0.011 | 0.613 ± 0.011 | 0.637 ± 0.011 | 0.661 ± 0.011 | 0.682 ± 0.011 | 0.706 ± 0.011 | 0.727 ± 0.011
313.15 K | 0.48 ± 0.011 | 0.501 ± 0.011 | 0.524 ± 0.011 | 0.543 ± 0.011 | 0.561 ± 0.011 | 0.579 ± 0.011 | 0.597 ± 0.011 | 0.613 ± 0.011 | 0.629 ± 0.011
